# Where two headings read alike, the source gives them in different places.
# Legend:
# [1] = biological target: AXL (phospho-AXL, Gas6-stimulated A-172 glioblastoma cells) (Homo sapiens (Human), UniProt P30530); assay: AXL autophosphorylation ELISA in A-172 cells (Example E); format: cell-based; conditions: cellular activity; AXL autophosphorylation ELISA in A-172 cells; read-out: Axl IC50
# In short: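 Phospho-AXL in lysates was quantified by ELISA, normalised to DMSO (100%) and reference inhibitor (0%) controls. IC50 by 4-parameter logistic fit.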
# [2] = biological target: Human MET (residues 956-1390) (Homo sapiens (Human), UniProt P08581); assay: Human Met kinase assay, HTRF KinEase (Example D-2); format: biochemical; conditions: read-out: c-Met IC50
# In short: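 HTRF KinEase assay on MET residues 956-1390 (0.1 ng/well) in buffer with 5 mM MgCl2, 1 mM DTT and 1 mM MnCl2, with biotinylated peptide substrate, ATP at Km, 10 compound concentrations and 3% DMSO final, run 40 min at room temperature. The […] signal was normalized to DMSO and to 1 μM reference compound, and IC50 came from a 4-parameter logistic fit.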
# [3] = biological target: KDR (phospho-KDR, VEGF165-stimulated HUVEC cells) (Homo sapiens (Human), UniProt P35968); assay: KDR autophosphorylation ELISA in HUVEC cells (Example G); format: cell-based; conditions: cellular activity; KDR autophosphorylation ELISA in HUVEC cells
# In short: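 HUVECs were serum-starved 24 h, given compound as an 8-point dilution series (0.3% DMSO final) for 1 h, then stimulated with 100 ng/mL VEGF165 for 5 min. Lysate phospho-KDR was quantified by sandwich ELISA against a phospho-KDR standard, and IC50s came from a 4-parameter logistic fit.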
# [4] = biological target: Met (phospho-Met, HGF-stimulated PC-3 prostate cancer cells) (Homo sapiens (Human), UniProt P08581); assay: Met autophosphorylation ELISA in PC-3 cells (Example F); format: cell-based; conditions: cellular activity; Met autophosphorylation ELISA in PC-3 cells; read-out: c-Met IC50
# In short: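 PC-3 cells, serum-starved 3 h, were treated with compounds (8-point dose curve, 0.3% DMSO final) for 1 h, then stimulated with 100 ng/mL recombinant human HGF for 10 min. Lysate phospho-Met (panTyr) was quantified by sandwich ELISA; IC50 from 4-parameter logistic fit.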
# [5] = biological target: Mer (phospho-Mer, MERTK-transfected 293A cells) (Homo sapiens (Human), UniProt Q12866); assay: Mer autophosphorylation ELISA in transient transfected 293A cells (Example H); format: cell-based; conditions: cellular activity; Mer autophosphorylation ELISA in transient transfected 293A cells
# In short: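 Human MERTK transiently transfected into 293A cells; compounds as 8-point dose curve in serum-free medium (0.3% DMSO final), 1 h. Lysates assayed by phospho-Mer sandwich ELISA against phospho-Mer standard; DMSO = 100%, reference inhibitor = 0% activity; IC50 from 4-parameter logistic fit.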
# Chain of KDR (phospho-KDR, VEGF165-stimulated HUVEC cells) (P35968 20-1356): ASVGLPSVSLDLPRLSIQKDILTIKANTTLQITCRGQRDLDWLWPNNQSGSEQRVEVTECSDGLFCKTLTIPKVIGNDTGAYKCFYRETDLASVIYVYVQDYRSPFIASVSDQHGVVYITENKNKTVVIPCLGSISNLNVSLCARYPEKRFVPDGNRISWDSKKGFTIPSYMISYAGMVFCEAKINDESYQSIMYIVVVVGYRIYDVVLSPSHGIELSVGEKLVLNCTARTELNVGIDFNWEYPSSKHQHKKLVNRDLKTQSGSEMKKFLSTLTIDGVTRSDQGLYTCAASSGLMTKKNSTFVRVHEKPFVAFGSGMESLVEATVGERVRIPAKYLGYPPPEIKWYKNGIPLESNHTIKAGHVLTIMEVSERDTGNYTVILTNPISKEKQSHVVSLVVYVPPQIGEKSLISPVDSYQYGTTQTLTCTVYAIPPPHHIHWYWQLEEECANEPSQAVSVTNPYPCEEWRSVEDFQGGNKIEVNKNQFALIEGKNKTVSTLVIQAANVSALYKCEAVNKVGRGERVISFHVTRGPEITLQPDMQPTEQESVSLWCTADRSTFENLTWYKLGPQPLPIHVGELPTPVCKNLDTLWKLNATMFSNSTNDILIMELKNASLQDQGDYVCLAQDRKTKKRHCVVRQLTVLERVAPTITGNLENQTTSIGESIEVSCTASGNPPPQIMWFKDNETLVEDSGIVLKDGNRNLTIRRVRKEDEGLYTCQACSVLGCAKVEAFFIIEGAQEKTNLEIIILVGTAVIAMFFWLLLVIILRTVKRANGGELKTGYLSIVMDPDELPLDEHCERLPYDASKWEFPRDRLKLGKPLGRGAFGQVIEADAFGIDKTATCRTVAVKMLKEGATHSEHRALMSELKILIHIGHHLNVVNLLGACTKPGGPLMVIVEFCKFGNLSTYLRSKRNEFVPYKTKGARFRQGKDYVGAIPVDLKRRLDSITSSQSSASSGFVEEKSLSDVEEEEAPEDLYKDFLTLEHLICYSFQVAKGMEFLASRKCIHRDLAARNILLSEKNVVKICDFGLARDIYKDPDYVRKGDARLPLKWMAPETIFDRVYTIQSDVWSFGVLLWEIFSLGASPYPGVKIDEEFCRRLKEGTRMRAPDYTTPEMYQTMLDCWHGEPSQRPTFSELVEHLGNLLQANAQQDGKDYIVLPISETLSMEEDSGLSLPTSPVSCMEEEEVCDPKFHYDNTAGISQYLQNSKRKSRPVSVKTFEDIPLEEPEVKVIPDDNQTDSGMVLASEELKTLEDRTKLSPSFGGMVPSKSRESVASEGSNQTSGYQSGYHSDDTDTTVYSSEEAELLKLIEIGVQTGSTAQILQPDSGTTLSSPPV
# Chain of AXL (phospho-AXL, Gas6-stimulated A-172 glioblastoma cells) (P30530 26-894): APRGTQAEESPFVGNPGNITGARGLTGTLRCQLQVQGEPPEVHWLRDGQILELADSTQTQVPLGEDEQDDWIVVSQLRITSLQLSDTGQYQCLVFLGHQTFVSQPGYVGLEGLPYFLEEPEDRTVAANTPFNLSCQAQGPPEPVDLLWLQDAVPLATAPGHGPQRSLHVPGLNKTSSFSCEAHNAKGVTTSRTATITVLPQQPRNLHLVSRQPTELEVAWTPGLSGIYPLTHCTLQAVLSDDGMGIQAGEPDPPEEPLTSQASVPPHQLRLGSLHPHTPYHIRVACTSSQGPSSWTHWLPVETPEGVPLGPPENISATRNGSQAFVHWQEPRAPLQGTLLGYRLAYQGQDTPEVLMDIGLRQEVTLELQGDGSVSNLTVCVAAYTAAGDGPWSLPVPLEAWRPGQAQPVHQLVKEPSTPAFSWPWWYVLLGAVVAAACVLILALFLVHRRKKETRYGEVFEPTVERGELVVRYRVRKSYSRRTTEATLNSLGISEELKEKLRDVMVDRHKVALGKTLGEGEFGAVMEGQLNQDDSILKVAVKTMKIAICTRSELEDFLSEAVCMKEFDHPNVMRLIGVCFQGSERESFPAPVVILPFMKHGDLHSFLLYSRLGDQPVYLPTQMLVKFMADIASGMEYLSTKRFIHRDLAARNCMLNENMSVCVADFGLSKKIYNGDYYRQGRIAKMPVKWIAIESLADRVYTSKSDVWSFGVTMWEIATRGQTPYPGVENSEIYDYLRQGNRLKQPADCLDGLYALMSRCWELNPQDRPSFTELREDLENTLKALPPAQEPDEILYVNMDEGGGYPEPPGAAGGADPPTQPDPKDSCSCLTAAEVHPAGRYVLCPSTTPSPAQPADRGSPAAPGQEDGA
# Chain of Mer (phospho-Mer, MERTK-transfected 293A cells) (Q12866 21-999): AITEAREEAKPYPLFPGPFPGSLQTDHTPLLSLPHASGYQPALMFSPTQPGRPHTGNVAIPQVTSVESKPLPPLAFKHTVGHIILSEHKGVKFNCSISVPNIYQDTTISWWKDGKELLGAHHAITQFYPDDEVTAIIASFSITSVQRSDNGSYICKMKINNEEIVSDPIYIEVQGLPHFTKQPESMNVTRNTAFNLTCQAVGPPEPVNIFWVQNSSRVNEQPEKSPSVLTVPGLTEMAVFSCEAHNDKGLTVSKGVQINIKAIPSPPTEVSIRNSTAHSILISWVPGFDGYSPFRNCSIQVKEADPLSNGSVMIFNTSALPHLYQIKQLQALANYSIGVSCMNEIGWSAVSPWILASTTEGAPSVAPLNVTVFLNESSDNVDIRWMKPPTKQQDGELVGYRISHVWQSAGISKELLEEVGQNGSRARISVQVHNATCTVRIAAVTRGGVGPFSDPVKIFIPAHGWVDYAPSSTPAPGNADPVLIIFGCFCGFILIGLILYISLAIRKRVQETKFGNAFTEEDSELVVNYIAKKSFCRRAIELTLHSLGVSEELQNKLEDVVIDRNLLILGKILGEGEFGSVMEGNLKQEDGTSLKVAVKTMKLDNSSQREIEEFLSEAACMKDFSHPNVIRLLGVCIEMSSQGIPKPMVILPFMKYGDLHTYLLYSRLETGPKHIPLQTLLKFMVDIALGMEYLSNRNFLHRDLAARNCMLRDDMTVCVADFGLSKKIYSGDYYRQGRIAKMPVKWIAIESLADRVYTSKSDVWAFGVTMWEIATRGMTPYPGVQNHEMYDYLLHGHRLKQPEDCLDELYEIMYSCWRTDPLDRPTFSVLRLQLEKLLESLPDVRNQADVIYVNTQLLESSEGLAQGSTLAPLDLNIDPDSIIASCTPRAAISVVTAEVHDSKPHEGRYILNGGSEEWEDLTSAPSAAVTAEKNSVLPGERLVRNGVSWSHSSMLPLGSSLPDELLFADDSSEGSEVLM
# Chain of Met (phospho-Met, HGF-stimulated PC-3 prostate cancer cells) (P08581 25-1390): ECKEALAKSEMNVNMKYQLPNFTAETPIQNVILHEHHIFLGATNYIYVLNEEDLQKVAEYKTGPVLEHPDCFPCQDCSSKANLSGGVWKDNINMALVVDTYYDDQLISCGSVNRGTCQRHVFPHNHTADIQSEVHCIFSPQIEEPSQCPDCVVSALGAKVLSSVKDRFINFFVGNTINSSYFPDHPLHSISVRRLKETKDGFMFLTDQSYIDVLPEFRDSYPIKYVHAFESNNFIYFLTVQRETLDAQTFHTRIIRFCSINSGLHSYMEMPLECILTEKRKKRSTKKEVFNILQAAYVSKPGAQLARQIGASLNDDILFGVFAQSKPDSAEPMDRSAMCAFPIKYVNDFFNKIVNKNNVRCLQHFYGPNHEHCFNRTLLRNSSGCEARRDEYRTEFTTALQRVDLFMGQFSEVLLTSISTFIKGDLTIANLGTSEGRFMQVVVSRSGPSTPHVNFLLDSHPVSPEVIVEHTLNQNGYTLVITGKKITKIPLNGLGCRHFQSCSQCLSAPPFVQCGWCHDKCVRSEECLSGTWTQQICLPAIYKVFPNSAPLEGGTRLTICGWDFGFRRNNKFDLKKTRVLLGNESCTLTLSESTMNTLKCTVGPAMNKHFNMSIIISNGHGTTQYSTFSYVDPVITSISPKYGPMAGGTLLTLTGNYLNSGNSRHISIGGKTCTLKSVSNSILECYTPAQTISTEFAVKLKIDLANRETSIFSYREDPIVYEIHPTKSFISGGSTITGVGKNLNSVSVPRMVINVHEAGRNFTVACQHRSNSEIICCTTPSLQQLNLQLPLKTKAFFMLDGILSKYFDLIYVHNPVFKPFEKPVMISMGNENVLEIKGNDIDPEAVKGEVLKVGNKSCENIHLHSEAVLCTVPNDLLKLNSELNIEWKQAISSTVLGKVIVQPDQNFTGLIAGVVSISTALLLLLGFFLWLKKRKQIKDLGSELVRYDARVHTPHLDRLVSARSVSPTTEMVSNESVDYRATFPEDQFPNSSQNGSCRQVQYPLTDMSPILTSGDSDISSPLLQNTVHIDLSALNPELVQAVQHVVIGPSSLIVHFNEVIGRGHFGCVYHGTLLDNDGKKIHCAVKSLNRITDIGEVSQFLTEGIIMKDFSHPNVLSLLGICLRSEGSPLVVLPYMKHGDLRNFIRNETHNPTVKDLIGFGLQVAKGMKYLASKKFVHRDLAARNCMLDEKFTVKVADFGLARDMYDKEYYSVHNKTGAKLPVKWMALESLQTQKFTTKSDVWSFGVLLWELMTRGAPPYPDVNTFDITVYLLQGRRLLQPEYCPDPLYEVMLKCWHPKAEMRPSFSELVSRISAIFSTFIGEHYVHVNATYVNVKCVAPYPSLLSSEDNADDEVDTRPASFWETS
# Chain of Human MET (residues 956-1390) (P08581 956-1390): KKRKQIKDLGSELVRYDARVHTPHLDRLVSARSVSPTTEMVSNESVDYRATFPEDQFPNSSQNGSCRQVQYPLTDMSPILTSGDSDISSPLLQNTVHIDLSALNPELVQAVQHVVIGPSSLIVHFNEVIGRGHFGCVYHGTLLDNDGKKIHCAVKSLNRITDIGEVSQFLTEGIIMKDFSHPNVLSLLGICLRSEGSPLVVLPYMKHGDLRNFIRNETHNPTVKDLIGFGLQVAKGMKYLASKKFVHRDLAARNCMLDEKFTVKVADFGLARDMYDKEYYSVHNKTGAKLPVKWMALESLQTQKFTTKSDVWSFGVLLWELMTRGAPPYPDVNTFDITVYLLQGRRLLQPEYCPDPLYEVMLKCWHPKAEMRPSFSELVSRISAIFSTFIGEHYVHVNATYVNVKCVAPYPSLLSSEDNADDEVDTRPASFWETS
IC50 [1],IC50 ([2]; protocol of Example D-2),IC50 [3],IC50 [4],IC50 [5],IC50 ([2]; protocol of Example D-2 (other compounds)),SMILES
< 0.1 µM,< 0.1 µM,> 0.3 µM,< 0.1 µM,< 0.1 µM,–,"COc1cc2nccc(Oc3ccc(NC(=O)c4cn(C5CNC5)cc(-c5ccc(F)cc5)c4=O)cc3F)c2nc1OC [Compound 576, 1-(Azetidin-3-yl)-N-[4-[(6,7-dimethoxy-1,5-naphthyridin-4-yl)oxy]-3-fluorophenyl]-5-(4-fluorophenyl)-4-oxopyridine-3-carboxamide]"
< 0.1 µM,–,> 0.3 µM,< 0.1 µM,< 0.1 µM,< 0.1 µM,"COc1cc2nccc(Oc3ccc(NC(=O)c4cn(C5CN(C)C5)cc(-c5ccc(F)cc5)c4=O)cc3F)c2nc1OC [Compound 52, N-[4-[(6,7-Dmethoxy-1,5-naphthyridin-4-yl)oxy]-3-fluorophenyl]-5-(4-fluorophenyl)-1-(1-methylazetidin-3-yl)-4-oxopyridine-3-carboxamide]"
< 0.1 µM,–,> 0.3 µM,< 0.1 µM,< 0.1 µM,–,"COc1cnc2c(Oc3ccc(NC(=O)c4c5n(c(C)c(-c6ccc(F)cc6)c4=O)CCOC5)cc3F)ccnc2c1 [Compound 783, N-[3-fluoro-4-[(7-methoxy-1,5-naphthyridin-4-yl)oxy]phenyl]-7-(4-fluorophenyl)-6-methyl-8-oxo-3,4-dihydro-1H-pyrido[2,1-c][1,4]oxazine-9-carboxamide]"
< 0.1 µM,–,< 0.1 µM,< 0.1 µM,< 0.1 µM,–,"COc1cc2nccc(Oc3ccc(NC(=O)c4c(C)c(F)cn(-c5ccc(F)cc5)c4=O)cc3F)c2nc1OC [Compound 664, N-[4-[(6,7-dimethoxy-1,5-naphthyridin-4-yl)oxy]-3-fluorophenyl]-5-fluoro-1-(4-fluorophenyl)-4-methyl-2-oxopyridine-3-carboxamide]"
< 0.1 µM,–,< 0.1 µM,< 0.1 µM,< 0.1 µM,–,"CNc1nccc2c(Oc3ccc(NC(=O)c4cnc(C)c(-c5ccc(F)cc5)c4O)cc3)ccnc12 [Compound 387, 5-(4-fluorophenyl)-4-hydroxy-6-methyl-N-[4-[[8-(methylamino)-1,7-naphthyridin-4-yl]oxy]phenyl]pyridine-3-carboxamide]"
< 0.1 µM,–,< 0.1 µM,< 0.1 µM,< 0.1 µM,–,"COc1cc2nccc(Oc3ccc(NC(=O)c4c(C)[nH]nc(-c5ccc(F)cc5)c4=O)cc3F)c2nc1OC [Compound 653, N-[4-[(6,7-dimethoxy-1,5-naphthyridin-4-yl)oxy]-3-fluorophenyl]-3-(4-fluorophenyl)-6-methyl-4-oxo-1H-pyridazine-5-carboxamide]"
< 0.1 µM,–,> 0.3 µM,< 0.1 µM,< 0.1 µM,–,"COc1cc2nccc(Oc3ccc(NC(=O)c4c5n(c(C)c(-c6ccc(F)cc6C)c4=O)CCOC5)cc3F)c2nc1OC [Compound 782, N-[4-[(6,7-dimethoxy-1,5-naphthyridin-4-yl)oxy]-3-fluorophenyl]-7-(4-fluoro-2-methylphenyl)-6-methyl-8-oxo-3,4-dihydro-1H-pyrido[2,1-c][1,4]oxazine-9-carboxamide]"
< 0.1 µM,–,< 0.1 µM,< 0.1 µM,< 0.1 µM,–,"COc1cc2nccc(Oc3ccc(NC(=O)c4cn(C)c(C)c(-c5ccc(F)cc5)c4=O)cc3C)c2nc1OC [Compound 763, N-[4-[(6,7-dimethoxy-1,5-naphthyridin-4-yl)oxy]-3-methylphenyl]-5-(4-fluorophenyl)-1,6-dimethyl-4-oxopyridine-3-carboxamide]"
< 0.1 µM,–,> 0.3 µM,< 0.1 µM,< 0.1 µM,–,"COc1cc2nccc(Oc3ccc(NC(=O)c4c(Cl)n(C)c(C)c(-c5ccc(F)cc5)c4=O)cc3F)c2nc1OC [Compound 647, 2-chloro-N-[4-[(6,7-dimethoxy-1,5-naphthyridin-4-yl)oxy]-3-fluorophenyl]-5-(4-fluorophenyl)-1,6-dimethyl-4-oxopyridine-3-carboxamide]"
< 0.1 µM,–,0.1 to 0.3 µM,< 0.1 µM,< 0.1 µM,–,"COc1cc2nccc(Oc3ccc(NC(=O)c4c(C)n(CCF)cc(-c5ccc(F)cc5)c4=O)cc3F)c2nc1OC [Compound 666, N-[4-[(6,7-dimethoxy-1,5-naphthyridin-4-yl)oxy]-3-fluorophenyl]-1-(2-fluoroethyl)-5-(4-fluorophenyl)-2-methyl-4-oxopyridine-3-carboxamide]"
< 0.1 µM,–,< 0.1 µM,< 0.1 µM,< 0.1 µM,–,"COc1cc2nccc(Oc3ccc(NC(=O)c4c(C)c(C(C)=O)cn(-c5ccc(F)cc5)c4=O)cc3F)c2nc1OC [Compound 654, 5-acetyl-N-[4-[(6,7-dimethoxy-1,5-naphthyridin-4-yl)oxy]-3-fluorophenyl]-1-(4-fluorophenyl)-4-methyl-2-oxopyridine-3-carboxamide]"

# Reference: patent US12371428B2 (Exelixis, Inc., priority 2019, dated 2025)
